Test results from PubChem BioAssay (NCI).
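Each compound was tested at five concentrations against cells in 96-well plates for 48 hours. GI50: concentration for 50% inhibition of growth. Definition used: TGI = concentration required for complete inhibition of growth.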

How the values were obtained:
Test in all cases: inhibition of tumour cell growth, NCI panel, 48 h
[1] = tested on: SNB-19 CNS
[2] = tested on: MALME-3M melanoma
[3] = tested on: PC-3 prostate
[4] = tested on: EKVX NSCLC
[5] = tested on: KM12 colon
[6] = tested on: UACC-62 melanoma
[7] = tested on: HCT-15 colon
[8] = tested on: MDA-N
[9] = tested on: NCI-H226 lung
[10] = tested on: OVCAR-4 ovarian

SMILES | TGI [1] [µM] | TGI [2] [µM] | TGI [3] [µM] | TGI [4] [µM] | TGI [5] [µM] | TGI [6] [µM] | TGI [7] [µM] | TGI [8] [µM] | TGI [9] [µM] | TGI [10] [µM] | GI50 [5] [µM] | GI50 [9] [µM]
O=C(/C=C/c1ccc2c(c1)OCO2)Cc1nc2ccccc2[nH]c1=O | 49.4 | 43.4 | 47.9 | > 100 | > 100 | > 100 | > 100 | > 100 | – | – | – | –
O=C1CS(=O)(=O)C(c2cccc(Oc3ccccc3)c2)N1c1cc(Cl)ccc1Cl (stereo not given) | 57 | > 100 | 32 | > 100 | 39.4 | 31.9 | 69.9 | 35.1 | 41.5 | – | – | –
CC1=NNC(=O)C1C1CC(c2c[nH]c3ccccc23)=NN=C1Cl (stereo not given) | > 100 | > 100 | > 100 | > 100 | 69.3 | > 100 | > 100 | > 100 | > 100 | – | – | –
CCN1C(=O)C(=C/C=C/c2ccc(N(CC)CC)cc2)C(=O)N(CC)C1=S | > 100 | – | > 100 | > 100 | > 100 | > 100 | > 100 | > 100 | > 100 | > 100 | – | –
CN(C)CCCNC(=O)c1c(O)c2ccccc2n(C)c1=O | – | > 100 | > 100 | > 100 | > 100 | > 100 | > 100 | > 100 | > 100 | > 100 | – | –
C(=C\c1ccccc1)/COc1ccccc1C(N1CCOCC1)n1nc2ccccc2n1 (stereo not given) | > 63.1 | 14.4 | 10.9 | 49.6 | 19.8 | 16.4 | 11.7 | – | 28.7 | 57.9 | – | –
Cc1cccc(/C(Br)=C2/OC(=O)c3ccccc32)c1 | – | > 100 | > 100 | > 100 | > 100 | > 100 | > 100 | > 100 | – | > 100 | – | –
Nc1ccc(-c2nn3c(COc4ccc(Cl)cc4)nnc3s2)cc1 | > 100 | > 100 | > 100 | > 100 | > 100 | > 100 | > 100 | – | > 100 | > 100 | 99.5 | 7.19
COC(=O)[C@H](Cc1ccccc1)NC(=O)N(CCC#N)CCN(C(=O)N[C@@H](Cc1ccccc1)C(=O)OC)c1ccccc1 | > 100 | – | > 100 | 73.2 | > 100 | 13.6 | > 100 | 33.8 | 89 | 69.2 | – | –
COc1cc([N+](=O)[O-])c(OC)c2c(Nc3ccc(S(=O)(=O)O)c4cc(S(=O)(=O)O)cc(S(=O)(=O)O)c34)cc(C)nc12 | – | > 100 | > 100 | > 100 | > 100 | > 100 | – | > 100 | > 100 | – | – | –
COC(=O)C1(O)C(c2ccccc2)=NC2(C)CCCC21 (stereo not given) | > 100 | > 100 | > 100 | – | > 100 | > 100 | > 100 | > 100 | > 100 | > 100 | – | –
CC#CC(O)(C(=O)OC1CC(C)N(C)C(C)(C)C1)C1CCCC1 (stereo not given) | > 100 | > 100 | > 100 | > 100 | > 100 | > 100 | > 100 | > 100 | > 100 | – | – | –
CSc1nc2c(ncn2C2OC(CO)C(O)C(O)C2O)c(=O)[nH]1 (stereo not given) | > 100 | > 100 | – | > 100 | > 100 | > 100 | > 100 | – | > 100 | > 100 | – | –
O=C1C2=C(CCC2)Nc2cccc3ncn1c23 | > 100 | > 100 | – | > 100 | > 100 | > 100 | > 100 | – | – | – | – | –
C=C1C(=O)C23C(O)CC4C5(C)CCCC4(C(O)OC5)C2C(OC(C)=O)CC1C3O (stereo not given) | 28.1 | 28.8 | – | 27.7 | 22.1 | 19.8 | 27.4 | – | 37.1 | 27.8 | – | –
Cc1cc(C)c(/C=C(\C(=C/c2c(C)cc(C)cc2C)[N+](=O)[O-])[N+](=O)[O-])c(C)c1 | > 100 | – | > 100 | > 100 | > 100 | > 100 | – | > 100 | – | > 100 | – | –
CCNc1ncnc2sc(SCc3ccccc3)nc12 | > 100 | > 100 | > 100 | > 100 | > 100 | – | > 100 | > 100 | > 100 | > 100 | – | –
O=[N+]([O-])/C(Cl)=C(\NCCN/C(C(Cl)=C(Cl)Cl)=C(/Cl)[N+](=O)[O-])C(Cl)=C(Cl)Cl | > 100 | > 100 | > 100 | > 100 | > 100 | > 100 | > 100 | > 100 | > 100 | – | – | –
CCOC(=O)C1=CC(C)(C(=O)OCC)Nc2c(nc(N)[nH]c2=O)N1 (stereo not given) | > 10 | > 10 | > 10 | > 10 | > 10 | – | > 10 | > 10 | > 10 | > 10 | – | –
O=C(O)/C=C\C(=O)Nc1ccc(S(=O)(=O)c2ccc(NC(=O)/C=C\C(=O)O)cc2)cc1 | > 100 | > 100 | – | > 100 | > 100 | > 100 | > 100 | – | > 100 | > 100 | – | –
COc1ccc(/C=N/n2c(C)nc3c(sc(=S)n3-c3ccccc3)c2=O)cc1 | > 100 | – | – | – | > 100 | > 100 | – | – | > 100 | – | – | –
O=C(CC(C(=O)c1ccco1)c1ccco1)c1ccco1 (stereo not given) | – | – | – | > 100 | > 100 | > 100 | – | > 100 | > 100 | > 100 | – | –
C[C@H]1OC(=O)[C@@H]2N=NN(Cc3ccccc3)[C@H]12 | > 100 | > 100 | > 100 | – | > 100 | > 100 | > 100 | > 100 | – | > 100 | – | –
O=C1C2=Nc3ccccc3C(O)(C(=O)O)N2c2ccccc21 (stereo not given) | – | 28.2 | 20 | > 100 | > 100 | – | > 100 | – | > 100 | 32.4 | – | –
